The results in this text go back to patent US20240287463A1, “INDUCIBLE TISSUE CONSTRUCTS AND USES THEREOF” (Massachusetts Institute of Technology, priority 2020, published 2024).

In one series the test system is iCasp9-GFP J2 population. In words: fibroblast removal from 2D micropatterned co-cultures (MPCC). The format is cell-based. The note with it: 50 nM CID. The source says: Specifically, MPCC were fabricated as described previously (S. R. Khetani and S. N. Bhatia (2005) Nat. Biotechnol 26, 120; S. March et al. (2015) Nat. Protoc. 10, 2007). Briefly, collagen was adsorbed in each well of a 96 well plate (glass bottom), and then patterned using an elastomeric polydimethysiloxane mold and oxygen plasma gas ablation. Human hepatocytes were thawed and seeded (70 k/well) on the collagen islands (500 μm with 1,200 μm center-to-center spacing). Adhered hepatocytes (˜10 k/well) were allowed to spread overnight before fibroblasts were seeded for co-culture (7 k/well). Supernatant was collected from cultures every other day and stored at −20° C. Human albumin was quantified using an enzyme-linked immunosorbent assay using a sheep anti-rat albumin antibody (ELISA) (Bethyl Laboratories) and 3,3′,5,5′-tetramethylbenzidine (TMB, Thermo Fisher). Urea concentration was measured using a colorimetric (diacetylmonoxime) assay with acid and heat (Stanbio Labs). CYP3A4 activity was assessed with the luminogenic P450-GloTM CYP450 assay kit (Promega) for nonlytic assays using cultured cells. Cultures were pre-treated with 2 μM rifampin or 1:1,000 DMSO vehicle control prepared in hepatocyte maintenance media for 72 hours (daily replenishment) where indicated. […]

The test system of series [1] is implanted hepatocyte tissue constructs. In words: human albumin in plasma of mice implanted with hepatocyte/iCasp9-HDF/HUVEC constructs (ELISA). The format is in vivo. The settings on record: 10 mg/kg on days 5 and 6 post-implantation, plasma at day 7. On the procedure:
Following the confirmation of vessel maintenance and anastomosis and ability to induce death of implanted fibroblasts in vivo, hepatocyte function was evaluated in implanted hepatocyte tissue constructs. Specifically, mice were implanted with hepatocyte/iCasp9-HDF/HUVEC tissue constructs after in vitro culture for 7 days. Constructs were implanted in mouse fat pads as described above, and treated with 10 mg/kg CID or vehicle on days 5 and 6 post-implantation. At day 7, blood was collected and centrifuged to isolate plasma.
(An ELISA detects its analyte on a solid surface through an enzyme-linked reagent.)

The subject of series [2] is primary human hepatocytes. Put plainly: hepatocyte albumin and urea in tri-culture microfluidic devices. It counts as cell-based. The note with it: 50 nM CID after 5 days of tri-culture. The source says:
Specifically, MPCC were fabricated as described previously (S. R. Khetani and S. N. Bhatia (2005) Nat. Biotechnol 26, 120; S. March et al. (2015) Nat. Protoc. 10, 2007). Briefly, collagen was adsorbed in each well of a 96 well plate (glass bottom), and then patterned using an elastomeric polydimethysiloxane mold and oxygen plasma gas ablation. Human hepatocytes were thawed and seeded (70 k/well) on the collagen islands (500 μm with 1,200 μm center-to-center spacing). Adhered hepatocytes (˜10 k/well) were allowed to spread overnight before fibroblasts were seeded for co-culture (7 k/well). Supernatant was collected from cultures every other day and stored at −20° C. Human albumin was quantified using an enzyme-linked immunosorbent assay using a sheep anti-rat albumin antibody (ELISA) (Bethyl Laboratories) and 3,3′,5,5′-tetramethylbenzidine (TMB, Thermo Fisher). Urea concentration was measured using a colorimetric (diacetylmonoxime) assay with acid and heat (Stanbio Labs). CYP3A4 activity was assessed with the luminogenic P450-GloTM CYP450 assay kit (Promega) for nonlytic assays using cultured cells. Cultures were pre-treated with 2 μM rifampin or 1:1,000 DMSO vehicle control prepared in hepatocyte maintenance media for 72 hours (daily replenishment) where indicated.
Given that fibroblasts are only transiently required for supporting the formation of a functional vasculature, it was investigated whether CAMEO could be used in the vascularization of tissue constructs with organ-specific parenchymal cells without negatively affecting the function of the parenchymal cells. To investigate this, a tri-culture system of HUVECs, iCasp9-HDFs, and primary human hepatocytes was employed in the microfluidic device. […] To evaluate whether the hepatocytes remained functional after CID treatment, levels of albumin and urea, markers for hepatic protein synthesis function and nitrogen metabolism, respectively, were measured in the media.

The next series relates to iCasp9-GFP J2s. In words: fibroblast deletion from 3D spheroid-laden hydrogels. The format is cell-based. The source says: Previous work identified that phenotypic stability and longevity of primary hepatocytes cultured as 3D microtissues were transiently supported by pre-aggregation to increase homotypic cell-cell interactions, and were further enhanced upon inclusion of J2 fibroblasts (C. Y. Li et al. (2014) Tissue Eng. Part A 20, 2200). Thus, iCasp9-GFP J2 fibroblasts were incorporated into these 3D hepatic ensembles, which were fabricated by plating primary human hepatocytes and fibroblasts in microwells in order to facilitate physical cell-cell contacts, as previously described (K. Stevens et al. (2013) Nat. Commun. 4, 1847; K. R. Stevens et al. (2017) Sci. Transl. Med. 9, eaaah5505). […] Hepatic spheroids (about 150 hepatocytes per spheroid, ˜100 μm diameter) were imaged and analyzed to quantify the extent of spheroid compaction. […] Resulting morphologies were traced and measured for circularity. […]
To probe the dependence of hepatocyte phenotypic stability on fibroblast co-culture in 3D, fibroblasts were deleted from spheroid-laden hydrogel cultures using CAMEO after 1 day of hepatocyte-fibroblast co-culture. Fibroblasts were robustly removed from 3D co-cultures as described in the above Examples, and detected by immunofluorescence imaging (FIG. 3I). […]

On to `CC[C@H](C(=O)N1CCCC[C@H]1C(=O)O[C@H](CCc1ccc(OC)c(OC)c1)c1cccc(OCC(=O)NCC(CNC(=O)COc2cccc([C@@H](CCc3ccc(OC)c(OC)c3)OC(=O)[C@@H]3CCCCN3C(=O)[C@@H](CC)c3cc(OC)c(OC)c(OC)c3)c2)CN(C)C)c1)c1cc(OC)c(OC)c(OC)c1` [CID, AP20187], for which the “removal of fibroblasts from MPCC” value in the series with iCasp9-GFP J2 population is reported as “selective removal of the iCasp9-GFP J2 population”. For the same molecule, the “human albumin secretion compared to vehicle control and in vitro CID treated constructs” value in series [1] is “similar”. For the same molecule, the “secretive functions of the hepatocytes” value in series [2] was “did not negatively affect”. In series [2] (day 7), the “secreted albumin versus vehicle control” value was “statistically higher level” and the “secreted urea versus vehicle control” value is “statistically higher level”. For the same molecule, the iCasp9-GFP staining entry in the series with iCasp9-GFP J2s (50 nM CID at day 1, imaged starting at day 2) is on record as “negligible”. Besides, the “deletion of iCasp9-GFP J2s throughout the hydrogel” value in the series on iCasp9-GFP J2s (spheroid-laden hydrogel cultures, data not shown) is “robust and specific deletion”.
